Read-outs that look alike come from different tables or passages of the source.
Legend:
HeLa cells = assay: Compound screen by flow cytometry: HeLa cell count as surrogate readout of cell viability (z-scoreHeLa); format: cell-based, human
Experimental: (§1) The cells were resuspended in cell culture medium without antibiotics, seeded with 10,000 cells/well into Costar flat-bottom 96-well plates (Corning, Amsterdam, the Netherlands), and were incubated overnight at 37°C/5% CO2. The next day, the bacteria were centrifuged at ≥1800 g for 15 min and resuspended in cold PBS + 5 mM ethylenediaminetetraacetic acid (EDTA). The number of CFUs present in the bacterial suspension was estimated from the optical density at 600 nm (OD600) by assuming 8x10^8 CFUs to be present in a bacterial suspension with OD600 = 1, based on prior titrations. The bacterial suspension was diluted in cell culture medium without antibiotics and added to the cells. Accuracy of the multiplicity of infection (MOI) was validated by plating serial dilutions of the MRSA inoculums on Difco TS agar plates (BD Biosciences). The calculated mean MOI throughout all experiments was 6.8 ± 4.6 (mean ± SD). Infected cells were centrifuged for 3 min at 150 g and incubated for 1 hour at 37°C/5% CO2. Next, the cells were incubated with fresh cell culture medium supplemented with 30 µg/ml gentamicin sulphate (Lonza BioWhittaker, Basel, Switzerland) for 15 min at 37°C/5% CO2 to kill residual extracellular bacteria. Infected cells were incubated overnight at 37°C/5% CO2 in cell culture medium in the presence of kinase inhibitors and 5 µg/ml gentamicin sulphate-containing medium to prevent the growth of extracellular bacteria. The solvent of the compounds, DMSO, was used at equal % v/v as a negative control. For the screen, each compound was tested in triplicate, on separate cell culture plates, resulting in triplicate values for each kinase inhibitor.
(§2) HeLa cells were harvested by trypsinization and fixed with 1% paraformaldehyde. Samples were measured on a FACSLyric with HTS extension (BD Biosciences). Flow cytometry data were analysed using FlowJo version 10 (TreeStar, Ashland, OR, USA). HeLa cells positive for GFP were gated to calculate the percentage of MRSA-infected cells. The cell count was used as surrogate readout of cell viability.
To minimize the possibility that the presence of extreme values on a plate affected the z-scores, raw values that deviated two-fold from the negative controls were excluded when calculating plate means and standard deviations as used in the aforementioned formula. Compounds were considered a “hit” when z-scoreMRSA+ ≤ -2 and z-scoreHeLa ≥ -3 for cell count. In cases where compounds were screened twice, the average values were used to select hit compounds.

intracellular MRSA = format: cell-based, Staphylococcus aureus; settings: for effect / hit / z-scoreMRSA+ mean / z-scoreMRSA+ rep 1 / z-scoreMRSA+ rep 2 / z-scoreMRSA+ rep 3: PKIS compound screen; for hit: Yes/No call (effect without cell death); for z-scoreMRSA+ mean: mean of 3 replicates; for z-scoreMRSA+ rep 1 / %GFP+ rep 1: replicate 1; for z-scoreMRSA+ rep 2 / %GFP+ rep 2: replicate 2; for z-scoreMRSA+ rep 3 / %GFP+ rep 3: replicate 3
Experimental: as §1, §2
To identify potential “hit” compounds, the flow cytometry data were used to calculate standard z-scores using z = (x-μ)/σ – zneg, where x is total event count or the percent of GFP-positive cells from a single well, μ is the mean from wells of the plate, σ is the standard deviation of the plate and zneg is the mean z-score of the negative control of the plate (i.e., DMSO) ([Korbee et al., 2018]). To minimize the possibility that the presence of extreme values on a plate affected the z-scores, raw values that deviated two-fold from the negative controls were excluded when calculating plate means and standard deviations as used in the aforementioned formula. Compounds were considered a “hit” when z-scoreMRSA+ ≤ -2 and z-scoreHeLa ≥ -3 for cell count. In cases where compounds were screened twice, the average values were used to select hit compounds.

[1] = PKIS compounds raw data, MRSA-infected HeLa cells
[2] = PKIS compound screen raw data, HeLa cell count, replicate 1
[3] = PKIS compound screen raw data, HeLa cell count, replicate 2
[4] = PKIS compound screen raw data, HeLa cell count, replicate 3
[5] = PKIS compound screen, HeLa cell count, mean of 3 replicates
[6] = PKIS compound screen, HeLa cell count, replicate 1
[7] = PKIS compound screen, HeLa cell count, replicate 2
[8] = PKIS compound screen, HeLa cell count, replicate 3
[9] = PKIS compound screen, Yes/No call on z-scoreHeLa
[10] = PKIS compound screen raw data, MRSA-infected HeLa cells
[11] = PKIS compound screen, Yes/No call
[12] = PKIS compound screen, mean of 3 replicates
[13] = PKIS compound screen, replicate 1
[14] = PKIS compound screen, replicate 2
[15] = PKIS compound screen, replicate 3
[16] = PKIS compounds raw data, replicate 1, HeLa cell count
[17] = PKIS compounds raw data, replicate 2, HeLa cell count
[18] = PKIS compounds raw data, replicate 3, HeLa cell count

SB-675259-M
cell count rep 1 (HeLa cells): 2153 | cell count rep 2 (HeLa cells): 1700 | cell count rep 3 (HeLa cells): 5596 | cell death (HeLa cells): No | z-scoreHeLa mean (HeLa cells): -1.66 | z-scoreHeLa rep 1 (HeLa cells): -2.37 | z-scoreHeLa rep 2 (HeLa cells): -1.94 | z-scoreHeLa rep 3 (HeLa cells): -0.65 | effect (intracellular MRSA; Yes/No call): No | hit (intracellular MRSA): No | z-scoreMRSA+ mean (intracellular MRSA): -0.33 | z-scoreMRSA+ rep 1 (intracellular MRSA): -0.0227 | z-scoreMRSA+ rep 2 (intracellular MRSA): 0.37 | z-scoreMRSA+ rep 3 (intracellular MRSA): -1.33 | %GFP+ rep 1 (intracellular MRSA; [1]): 13.1% | %GFP+ rep 2 (intracellular MRSA; [1]): 14.6% | %GFP+ rep 3 (intracellular MRSA; [1]): 11.4%

O=c1cc(N2CCOCC2)nc2n(Cc3cccc4ccccc34)ccn12 [GSK2333389A]
cell count rep 1 (HeLa cells; [2]): 20901 | cell count rep 2 (HeLa cells; [3]): 33281 | cell count rep 3 (HeLa cells; [4]): 38349 | z-scoreHeLa mean (HeLa cells; [5]): -0.17 | z-scoreHeLa rep 1 (HeLa cells; [6]): 0.12 | z-scoreHeLa rep 2 (HeLa cells; [7]): -0.28 | z-scoreHeLa rep 3 (HeLa cells; [8]): -0.35 | cell death (HeLa cells; [9]): No | %GFP+ rep 1 (intracellular MRSA; [10]): 11.3% | %GFP+ rep 2 (intracellular MRSA; [10]): 12.1% | %GFP+ rep 3 (intracellular MRSA; [10]): 12.6% | z-scoreMRSA+ mean (intracellular MRSA; MRSA-infected HeLa cells): -2.07 | z-scoreMRSA+ rep 1 (intracellular MRSA; MRSA-infected HeLa cells): -2.08 | z-scoreMRSA+ rep 2 (intracellular MRSA; MRSA-infected HeLa cells): -1.93 | z-scoreMRSA+ rep 3 (intracellular MRSA; MRSA-infected HeLa cells): -2.19 | hit (intracellular MRSA): Yes | effect (intracellular MRSA; Yes/No call on z-scoreMRSA+): Yes

c1ccc(Oc2ccc(Nc3ccnc4cc(-c5ccc(CNCCN6CCOCC6)o5)ccc34)cc2)nc1 [GW567145X]
cell count rep 1 (HeLa cells; [2]): 29321 | cell count rep 2 (HeLa cells; [3]): 19879 | cell count rep 3 (HeLa cells; [4]): 15455 | z-scoreHeLa mean (HeLa cells; [5]): -0.58 | z-scoreHeLa rep 1 (HeLa cells; [6]): -0.15 | z-scoreHeLa rep 2 (HeLa cells; [7]): -0.93 | z-scoreHeLa rep 3 (HeLa cells; [8]): -0.68 | cell death (HeLa cells; [11]): No | cell death (HeLa cells; [9]): No | z-scoreHeLa mean (HeLa cells; [12]): 0.19 | z-scoreHeLa rep 1 (HeLa cells; [13]): 0.019 | z-scoreHeLa rep 2 (HeLa cells; [14]): 0.89 | z-scoreHeLa rep 3 (HeLa cells; [15]): -0.32 | cell count rep 1 (HeLa cells; [16]): 6078 | cell count rep 2 (HeLa cells; [17]): 7342 | cell count rep 3 (HeLa cells; [18]): 5085 | %GFP+ rep 1 (intracellular MRSA; [10]): 20.5% | %GFP+ rep 2 (intracellular MRSA; [10]): 21.2% | %GFP+ rep 3 (intracellular MRSA; [10]): 22.8% | z-scoreMRSA+ mean (intracellular MRSA; MRSA-infected HeLa cells): 0.46 | z-scoreMRSA+ rep 1 (intracellular MRSA; MRSA-infected HeLa cells): 0.46 | z-scoreMRSA+ rep 2 (intracellular MRSA; MRSA-infected HeLa cells): 0.49 | z-scoreMRSA+ rep 3 (intracellular MRSA; MRSA-infected HeLa cells): 0.43 | effect (intracellular MRSA; Yes/No call): No | hit (intracellular MRSA): No | effect (intracellular MRSA; Yes/No call on z-scoreMRSA+): No | z-scoreMRSA+ mean (intracellular MRSA): -0.39 | z-scoreMRSA+ rep 1 (intracellular MRSA): -0.38 | z-scoreMRSA+ rep 2 (intracellular MRSA): -0.37 | z-scoreMRSA+ rep 3 (intracellular MRSA): -0.40 | %GFP+ rep 1 (intracellular MRSA; [1]): 25.1% | %GFP+ rep 2 (intracellular MRSA; [1]): 24.1% | %GFP+ rep 3 (intracellular MRSA; [1]): 25.1%

Cc1ccc(S(=O)(=O)Nc2ccc(Nc3nccc(Nc4cccc5[nH]ncc45)n3)cc2)cc1 [GSK581271A]
cell death (HeLa cells; [11]): No | z-scoreHeLa mean (HeLa cells; [12]): 0.40 | z-scoreHeLa rep 1 (HeLa cells; [13]): 0.33 | z-scoreHeLa rep 2 (HeLa cells; [14]): 0.35 | z-scoreHeLa rep 3 (HeLa cells; [15]): 0.51 | cell count rep 1 (HeLa cells; [16]): 6603 | cell count rep 2 (HeLa cells; [17]): 6528 | cell count rep 3 (HeLa cells; [18]): 6401 | effect (intracellular MRSA; Yes/No call): No | hit (intracellular MRSA): No | z-scoreMRSA+ mean (intracellular MRSA): -0.30 | z-scoreMRSA+ rep 1 (intracellular MRSA): -0.62 | z-scoreMRSA+ rep 2 (intracellular MRSA): 0.0118 | z-scoreMRSA+ rep 3 (intracellular MRSA): -0.29 | %GFP+ rep 1 (intracellular MRSA; [1]): 23.9% | %GFP+ rep 2 (intracellular MRSA; [1]): 26.1% | %GFP+ rep 3 (intracellular MRSA; [1]): 25.7%

COc1cc(/C=N/Nc2ncnc3[nH]ncc23)ccc1O [GW578748X]
cell death (HeLa cells; [11]): No | z-scoreHeLa mean (HeLa cells; [12]): 0.25 | z-scoreHeLa rep 1 (HeLa cells; [13]): -0.52 | z-scoreHeLa rep 2 (HeLa cells; [14]): 1.00 | z-scoreHeLa rep 3 (HeLa cells; [15]): 0.26 | cell count rep 1 (HeLa cells; [16]): 4206 | cell count rep 2 (HeLa cells; [17]): 5592 | cell count rep 3 (HeLa cells; [18]): 7495 | effect (intracellular MRSA; Yes/No call): No | hit (intracellular MRSA): No | z-scoreMRSA+ mean (intracellular MRSA): -1.18 | z-scoreMRSA+ rep 1 (intracellular MRSA): -0.92 | z-scoreMRSA+ rep 2 (intracellular MRSA): -1.14 | z-scoreMRSA+ rep 3 (intracellular MRSA): -1.48 | %GFP+ rep 1 (intracellular MRSA; [1]): 10.3% | %GFP+ rep 2 (intracellular MRSA; [1]): 10.1% | %GFP+ rep 3 (intracellular MRSA; [1]): 10.9%

Source: publication PMC10999543, “Identification of kinase modulators as host-directed therapeutics against intracellular methicillin-resistant Staphylococcus aureus” (Frontiers in Cellular and Infection Microbiology, 2024)
